Results taken from PubChem BioAssay (NCI).
“And” between values parts separate entries of the source, which are not always exact repeats. Equal values may be shown once.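 Dose response: 5 concentrations. Exposure: 48 h. Format: 96-well plates. Endpoint: linear interpolation; highest concentration if not reached. Here, GI50 denotes the concentration required for 50% inhibition of growth. The concentration for full growth arrest is given as TGI.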

Key:
Test in all cases: NCI tumour cell line growth inhibition, 48 h
DLD-1 colon = system: DLD-1 colon
HOP-18 NSCLC = system: HOP-18 NSCLC
KM20L2 colon = system: KM20L2 colon
LXFL 529 NSCLC = system: LXFL 529 NSCLC
M19-MEL melanoma = system: M19-MEL melanoma
DMS 114 small cell lung = system: DMS 114 small cell lung
XF 498 CNS = system: XF 498 CNS
P388 leukemia = system: P388 leukemia
P388/ADR leukemia = system: P388/ADR leukemia
SN12K1 renal = system: SN12K1 renal

| SMILES | TGI (DLD-1 colon) | TGI (HOP-18 NSCLC) [µM] | TGI (KM20L2 colon) [µM] | TGI (LXFL 529 NSCLC) [µM] | TGI (M19-MEL melanoma) | TGI (DMS 114 small cell lung) | TGI (XF 498 CNS) | TGI (P388 leukemia) [µM] | TGI (P388/ADR leukemia) [µM] | TGI (SN12K1 renal) | GI50 (DMS 114 small cell lung) [µM] | GI50 (KM20L2 colon) [µM] | GI50 (M19-MEL melanoma) [µM] | GI50 (XF 498 CNS) [µM] | GI50 (DLD-1 colon) [µM] | GI50 (SN12K1 renal) [µM] |
| --- | --- | --- | --- | --- | --- | --- | --- | --- | --- | --- | --- | --- | --- | --- | --- | --- |
| COc1ccc(/C=c2\sc3n(c2=O)CCN=3)cc1 | > 100 µM | > 100 | > 100 | > 100 | > 100 µM |  |  |  |  |  |  |  |  |  |  |  |
| CC1=C(Cl)C=CP(=O)(Oc2ccccc2)C1 (centres undefined) |  | 89.6 | > 100 | 28.7 |  | 90.9 µM | > 100 µM |  |  |  |  |  |  |  |  |  |
| COC(=O)[C@@H](O)[C@](O)(CCC(C)C)C(=O)O[C@@H]1C(OC)=C[C@]23CCCN2CCc2cc4c(cc2[C@H]13)OCO4 | > 19.7 µM | 7.81 | 9.49 |  | 4.16 µM | 2.2 µM |  | 1.16 | 11 | 5.89 µM |  |  |  |  |  |  |
| CCCCCCCC/C=C\CCCCCCCCCCCC(=O)O | > 125 µM | > 125 | 122 |  | 97.2 µM |  | 2.82 µM | 51.6 | 36.3 | 52.4 µM |  |  |  |  |  |  |
| Nc1nc(SCCC/C=C/I)nc2c1ncn2C1OC(COP(=O)(O)O)C(O)C1O (centres undefined) | > 100 µM |  | > 100 | > 100 | > 100 µM | > 100 µM | > 100 µM |  |  |  |  |  |  |  |  |  |
| O=C1C=C[C@@H](COC2OC(CO)C(O)C(O)C2O)O1 (some centres undefined) | 17.9 µM and 19.1 µM | > 100 | 38 |  | 16.3 µM and 26.8 µM | 14.2 µM and 28.5 µM | 31.6 µM and 34.5 µM |  | 1.82 | 28.9 µM and 29.2 µM | 3.73 | 14.4 | 3.8 | 14.3 |  |  |
| Cc1ccc(NC(=O)CC2Sc3ccccc3NC2=O)cc1C (centres undefined) | > 100 µM | > 100 | > 100 | > 100 | > 100 µM | > 100 µM | > 100 µM |  |  |  |  |  |  |  |  |  |
| COc1ccc2cc1Oc1ccc(cc1)C[C@H]1c3cc(c(OC)cc3CCN1C)Oc1c(O)c(OC)cc3c1[C@H](C2)N(C)CC3 | 53.7 µM | 139 | 4.27 |  | 43.4 µM | 49.7 µM | 49.4 µM | 19.8 | 109 | 39.2 µM |  |  |  |  |  |  |
| Nc1c(S(=O)(=O)O)cc2cc(S(=O)(=O)O)ccc2c1N=Nc1ccc(-c2ccc(N=Nc3c(N)c(S(=O)(=O)O)cc4cc(S(=O)(=O)O)ccc34)c(S(=O)(=O)O)c2)cc1 | > 100 µM | > 100 | > 100 |  | > 100 µM | > 100 µM | > 100 µM | > 100 | > 100 | > 100 µM |  |  |  |  |  |  |
| COc1ccc2[nH]cc(/C=C(/C)c3ccncc3)c2c1 | > 100 µM | > 100 | 8.67 |  | 32 µM and 21.5 µM | 7.19 µM and 6.35 µM | 27.8 µM and 44.5 µM | 9.68 | 22.6 | 27.6 µM and > 100 µM | 2.23 | 2.96 | 6.77 | 4.3 | 4 | 5.6 |
